Data taken from patent US20210364519A1, “DETERMINING CANCER RESPONSIVENESS TO TREATMENT” (Queensland University of Technology, priority 2018, published 2021).

How the values were obtained:
[1] = test system: U2OS cells; experiment: Olaparib sensitivity of stable U2OS cell line ectopically expressing recombinant SASH1; format: cell-based
From the text: FIG. 6. Over expression of SASH1 infers resistance to Olaparib in U2OS cells.
Further to this, we made a stable U2OS cell line ectopically expressing recombinant SASH1.

[2] = test system: cell lines depleted of SASH1; experiment: Olaparib sensitivity of cell lines depleted of SASH1 using siRNA; format: cell-based; details: number of cell lines tested
From the text: FIG. 5. Depletion of SASH1 increases cancer cell sensitivity to Olaparib. A) Cell lines depleted of SASH1 have a reduced IC50 to Olaparib. B) Combined data of cell lines with SASH1 depletion showing a significant reduction in IC50 to Olaparib.

O=C(c1cc(Cc2n[nH]c(=O)c3ccccc23)ccc1F)N1CCN(C(=O)C2CC2)CC1 [Olaparib]
effect of SASH1 over-expression on Olaparib response [1]: sufficient to induce resistance
cell lines with increase in sensitivity to Olaparib after depletion of SASH1 [2]: 9 out of 12
